Test results as given in PubChem BioAssay (NCI).
Values joined by “and” are separate entries in the source; they are usually repeats but may differ in a detail not shown here. Identical values can stand only once.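 Briefly, cells in 96-well plates were exposed to five compound concentrations for 48 h, and endpoints were estimated by linear interpolation. At the GI50, growth is halved. The concentration for full growth arrest is given as TGI.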

Key:
Assay in all cases: DTP human tumour cell line panel, 48 h
OVCAR-4 ovarian = tested on: OVCAR-4 ovarian
SF-539 CNS = tested on: SF-539 CNS
NCI-H23 lung = tested on: NCI-H23 lung
HT29 colon = tested on: HT29 colon
RPMI-8226 leukemia = tested on: RPMI-8226 leukemia
HL-60(TB) leukemia = tested on: HL-60(TB) leukemia
NCI-H460 lung = tested on: NCI-H460 lung
CCRF-CEM leukemia = tested on: CCRF-CEM leukemia
IGROV1 ovarian = tested on: IGROV1 ovarian
MDA-MB-435 = tested on: MDA-MB-435

Row | Structure (SMILES) | TGI (OVCAR-4 ovarian) | TGI (SF-539 CNS) [µM] | TGI (NCI-H23 lung) [µM] | TGI (HT29 colon) [µM] | TGI (RPMI-8226 leukemia) | TGI (HL-60(TB) leukemia) [µM] | TGI (NCI-H460 lung) | TGI (CCRF-CEM leukemia) [µM] | TGI (IGROV1 ovarian) | TGI (MDA-MB-435) [µM] | GI50 (OVCAR-4 ovarian) [µM] | GI50 (HT29 colon) [µM] | GI50 (RPMI-8226 leukemia) | GI50 (HL-60(TB) leukemia) [µM] | GI50 (NCI-H460 lung) | GI50 (CCRF-CEM leukemia) | GI50 (MDA-MB-435) [µM] | GI50 (IGROV1 ovarian)
1 | O=C(O)[C@H]1NC[C@@H]2ON=C(Br)[C@@H]21 | > 100 µM | > 100 | > 100 | > 100 | > 100 µM | > 100 | > 100 µM | > 100 | > 100 µM | > 100 |  |  |  |  |  |  |  | 
2 | CCOC(=O)C1CCCC1S(=O)(=O)c1ccc(C)cc1 (centres undefined) | > 100 µM |  | > 100 | > 100 | > 100 µM | > 100 | > 100 µM | > 100 | > 100 µM | > 100 |  |  |  |  |  |  |  | 
3 | CCC(=O)n1c(=O)n(-c2ccc([N+](=O)[O-])cc2)c(=O)n1C(=O)CC | > 100 µM |  | > 100 | > 100 | > 100 µM | > 100 | > 100 µM | > 100 | > 100 µM | > 100 |  |  |  |  |  |  |  | 
4 | O=C(/C=C\c1ccc(OCCCCCC[P+](c2ccccc2)(c2ccccc2)c2ccccc2)cc1)c1ccc2c(c1)OCCO2 | 3.42 µM |  |  | 3.24 | 1.3 µM | 1.3 | 2.5 µM | 6.15 |  | 2.21 | 0.415 | 0.912 | 0.296 µM | 0.326 | 1.01 µM | 1.22 µM | 0.985 | 
5 | CC1(C)C(C(=O)OC(C#N)c2cccc(OCC(=O)OCc3ccccc3)c2)C1(C)C (centres undefined) | > 100 µM | > 100 | > 100 | > 100 |  | 22.9 | > 100 µM | 76.5 | > 100 µM | > 100 |  |  |  |  |  |  |  | 
6 | Cc1cc(C)c(N)c(C)c1N |  | > 100 | > 100 |  | > 100 µM | > 100 | > 100 µM | > 100 | > 100 µM |  |  |  |  |  |  |  |  | 
7 | O=C1CSC(c2c(O)ccc3ccccc23)N1n1c(=S)[nH]nc(/C=C/c2c(O)ccc3ccccc23)c1=O (centres undefined) | 40.3 µM |  | 23 | 36.6 | 17.4 µM | 0.874 | 11.5 µM | 3.04 | 26.7 µM | 14.9 |  |  |  |  |  |  |  | 
8 | CCCCCCCCCCOC1C(C(C)OCCCN(C)C)OC2OC3(CCCCC3)OC21 (centres undefined) | 27.5 µM |  | 23.8 | 11 | 17.4 µM | 20.7 | 22.7 µM | 25.4 | 28.1 µM | 30.3 |  |  |  |  |  |  |  | 
9 | O=C(NN1C(=O)C(Cl)C1c1ccc([N+](=O)[O-])cc1)c1ccccc1O (centres undefined) | > 100 µM | > 100 | > 100 | > 100 | > 100 µM | > 100 | > 100 µM | > 100 | > 100 µM |  |  |  |  |  |  |  |  | 
10 | CN(C)S(=O)(=O)c1cccc(-c2nc3sc4c(c3c(=O)[nH]2)CCCC4)c1 |  |  |  |  | > 100 µM |  | > 100 µM | > 100 |  |  |  |  | > 100 µM |  | 0.931 µM |  |  | 
11 | O=C(O)C1C2CCC(C2)C1c1ccccc1 (centres undefined) |  | > 100 | > 100 | > 100 | > 100 µM | > 100 | > 100 µM | > 100 |  | > 100 |  |  |  |  |  |  |  | 
12 | CCOC(=O)/C(=C\NC#N)c1nc2ccccc2[nH]1 | > 100 µM | > 100 | > 100 | > 100 | > 100 µM | > 100 | > 100 µM |  | > 100 µM | > 100 |  |  |  |  |  |  |  | 
13 | CCOC(=O)C1CCn2c(nc3c(=O)n(C)c(=O)n(C)c32)S1 (centres undefined) | > 100 µM | > 100 | > 100 | > 100 | > 100 µM | > 100 | > 100 µM | > 100 | > 100 µM |  |  |  |  |  |  |  |  | 
14 | C[N+](C)(N)Cc1csc(-c2ccc(Cl)cc2)n1 | > 100 µM | > 100 | > 100 | > 100 | > 100 µM |  | > 100 µM |  | > 100 µM | > 100 |  |  |  |  |  |  |  | 
15 | Cc1ccc(C(=O)/C=C/N2CCN(c3cccc(C(F)(F)F)c3)CC2)cc1 | > 100 µM | 31.5 | 31 | 35.8 | > 100 µM | 60.2 | 47.8 µM |  | 31.4 µM | 32.4 |  |  |  |  |  |  |  | 
16 | O=C1O[C@H](COC(=O)c2ccccc2)[C@@H](OC(=O)c2ccccc2)C=C1OC(=O)c1ccccc1 | 48.7 µM | 32.5 | 42.6 |  | 71.8 µM | 27.1 | 36.6 µM | 41.9 | 57.2 µM | 69.9 |  |  |  |  |  |  |  | 
17 | CC(C)(CO)NC(=O)c1cccc(C(=O)NC(C)(C)CO)c1Br | > 100 µM | > 100 | > 100 | > 100 | > 100 µM | > 100 | > 100 µM |  | > 100 µM | > 100 |  |  |  |  |  |  |  | 
18 | CN(C)Cc1cc(C(=O)/C=C/c2c(F)cccc2Cl)cc(CN(C)C)c1O | 31 µM |  | 38.3 | 23.7 | 49.6 µM | 8.49 | 11.8 µM | 24.1 | 19 µM | 38.2 |  |  |  |  |  |  |  | 
19 | CCC(C)N1CN(c2ccccc2)C2(CCN(CCCC(=O)c3ccc(F)cc3)CC2)C1=O (centres undefined) | 16.2 µM | 21 | 14.1 | 2.35 | 31.5 µM | 46 |  | > 100 | 18.7 µM | 27.5 |  |  |  |  |  |  |  | 
20 | O=C(O)C1Cc2ccccc2OC1=O (centres undefined) |  | > 100 | > 100 | > 100 | > 100 µM |  | > 100 µM |  | > 100 µM | > 100 |  |  |  |  |  |  |  | 
21 | COc1ccc(-c2c(C(C)=O)c(-c3ccccc3)n(C3OC(COC(C)=O)C(OC(C)=O)C(OC(C)=O)C3OC(C)=O)c(=S)c2C#N)cc1O (centres undefined) | 98.8 µM and > 100 µM |  | > 100 | > 100 | 61.3 µM and > 100 µM | > 100 | 37.4 µM and > 100 µM | > 100 | 35.6 µM and > 100 µM | > 100 |  |  | 11.3 µM and 47.5 µM |  | 10.8 µM and 43.5 µM | 23.6 µM and 70.2 µM |  | 12.4 µM and 38.2 µM
